Experimental data: patent US9745328B2, “Flap modulators” (JANSSEN PHARMACEUTICA NV, priority 2013, dated 2017)
Read-outs that look alike come from different tables or passages of the source.

Columns and labels:
human FLAP = human FLAP (Homo sapiens (Human), UniProt P20292); assay: FLAP binding assay (HTRF format); settings: human FLAP wild type, Table 6 (additional runs)
Outline: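 Averaged over two plates (duplicate wells per plate); output given as HTRF ratio.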

[1] = system: leukotriene pathway in human whole blood (LTB4); assay: Human whole blood assay (LTB4 levels after calcium ionophore A23187 stimulation); assay type: cell-based; settings: Homo sapiens, read-out: Human Whole Blood LTB4 IC50 1:1
Outline: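 Compounds are pre-incubated 15 min at 37° Celsius in RPMI-diluted (1:1) heparinised whole blood before a 30 min A23187 stimulus (7 μg/mL). Plasma LTB4 is read by immunoassay kit, with IC50 calculated from a 4-parameter equation.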

[2] = human whole blood diluted 1:1, A23187 stimulation, Table 6 (additional runs)

Chain of human FLAP (P20292 whole entry): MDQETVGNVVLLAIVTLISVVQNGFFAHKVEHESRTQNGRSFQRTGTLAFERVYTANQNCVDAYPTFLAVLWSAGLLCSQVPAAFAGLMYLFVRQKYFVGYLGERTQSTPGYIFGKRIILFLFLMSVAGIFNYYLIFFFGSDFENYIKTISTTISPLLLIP

SMILES | Ki (human FLAP) [nM] | IC50 [1, 2] [nM] | IC50 [1] [nM]
Nc1ncc(-c2ncc(-c3ccccc3S(=O)(=O)NCCO)cc2F)cn1 [Example 882, 2-[6-(2-Aminopyrimidin-5-yl)-5-fluoropyridin-3-yl]-N-(2-hydroxyethyl)benzenesulfonamide] | 167 | 68.8 | 
C[C@@H](NS(=O)(=O)c1ccccc1-c1cnc(-c2cnc(N)nc2)c(F)c1)C(F)(F)F [Example 883, 2-[6-(2-Aminopyrimidin-5-yl)-5-fluoropyridin-3yl]-N-[(1R)-2,2,2-trifluoro-1-methylethyl]benzenesulfonamide] | 34.2 | 69.5 | 
Nc1cnc(-c2ccc(-c3ccccc3OCC3CCS(=O)(=O)CC3)cc2F)cn1 [Example 884, 5-{2′-[(1,1-Dioxidotetrahydro-2H-thiopyran-4-yl)methoxy]-3-fluorobiphenyl-4-yl}pyrazin-2-amine] | 239 | 706 | 
Nc1cnc(-c2ccc(-c3ccccc3OC3CCS(=O)(=O)CC3)cc2F)cn1 [Example 885, 5-{2′-[(1,1-Dioxidotetrahydro-2H-thiopyran-4-yl)oxy]-3-fluorobiphenyl-4-yl}pyrazin-2-amine] | 40.8 | 1060 | 
Nc1cnc(-c2ccc(-c3ccccc3OCc3ccc(C(=O)O)cc3)cc2F)cn1 [Example 886, 4-(([4′-(5-Aminopyrazin-2-yl)-3′-fluorobiphenyl-2-yl]oxy}methyl)benzoic acid] | 5.8 | > 1000 | 
Nc1ncc(-c2ccc(-c3ccccc3OCc3ccc(C(=O)O)cc3)cc2F)cn1 [Example 887, 4-({[4′-(2-Aminopyrimidin-5-yl)-3′-fluorobiphenyl-2-yl]oxy}methyl)benzoic acid] | 30.4 | > 1000 | 
Nc1cnc(-c2ccc(-c3ccccc3Oc3ccc(C(=O)O)cc3)cc2F)cn1 [Example 888, 4-{[4′-(5-Aminopyrazin-2-yl)-3′-fluorobiphenyl-2-yl]oxy}benzoic acid] | 0.7 | 367 | 
Nc1ncc(-c2ccc(-c3ccccc3Oc3ccc(C(=O)O)cc3)cc2F)cn1 [Example 889, 4-{[4′-(2-Aminopyrimidin-5-yl)-3′-fluorobiphenyl-2-yl]oxy}benzoic acid] | 3.9 | 236 | 
NC(=O)c1ccc(Oc2ccccc2-c2ccc(-c3cnc(N)nc3)c(F)c2)cc1 [Example 890, 4-{[4′-(2-Aminopyrimidin-5-yl)-3′-fluorobiphenyl-2-yl]oxy)benzamide] | 3.7 | 62.3 | 
Nc1cnc(-c2ccc(-c3ccccc3O[C@H]3CC[C@H](N)CC3)cc2F)cn1 [Example 891] | 31.5 | 752 | 
Nc1cnc(-c2ccc(-c3cccnc3Oc3ccccc3)cc2F)cn1 [Example 894, 5-[2-Fluoro-4-(2-phenoxypyridin-3-yl)phenyl]pyrazin-2-amine] | 3.8 | 141 | 
Nc1ncc(-c2ccc(-c3cccnc3Oc3ccccc3)cc2F)cn1 [Example 895, 5-[2-Fluoro-4-(2-phenoxypyridin-3-yl)phenyl]pyrimidin-2-amine] | 13.2 | 222 | 
Nc1cnc(-c2ccc(-c3cccnc3Oc3cccnc3)cc2F)cn1 [Example 896, 5-{2-Fluoro-4-[2-(pyridin-3-yloxy)pyridin-3-yl]phenyl}pyrazin-2-amine] | 22.1 | 466 | 
Nc1ncc(-c2ccc(-c3cccnc3S(=O)(=O)c3ccccc3)cc2F)cn1 [Example 898, 5-{2-Fluoro-4-[2-(phenylsulfonyl)pyridin-3-yl]phenyl}pyrimidin-2-amine] | 79.7 | 928 | 
Nc1ncc(-c2ccc(-c3ccc(C(F)(F)F)nc3S(=O)(=O)C3CCOCC3)cc2F)cn1 [Example 907, 5-{2-Fluoro-4-[2-(tetrahydro-2H-pyran-4-ylsulfonyl)-6-(trifluoromethyl)pyridin-3-yl]phenyl}pyrimidin-2-amine] | 6 |  | 12
CS(=O)(=O)N1CCC(S(=O)(=O)c2ncccc2-c2ccc(-c3cnc(N)nc3)c(F)c2)CC1 [Example 909, 5-(2-Fluoro-4-(2-{[1-(methylsulfonyl)piperidin-4-yl]sulfonyl}pyridin-3-yl)phenyl]pyrimidin-2-amine] | 253 | 117 | 
CC(=O)N1CCC(S(=O)(=O)c2nc(C(F)(F)F)ccc2-c2ccc(-c3cnc(N)cn3)c(F)c2)CC1 [Example 910] | 2.9 | 9.2 | 

The next lines start with results.

Ki (human FLAP) [nM] | IC50 [1, 2] [nM] | SMILES | IC50 [1] [nM]
77.4 | 731 | Nc1cnc(-c2ccc(-c3ccc(C(F)(F)F)cc3N)cc2F)cn1 [Example 892, 5-[2′-Amino-3-fluoro-4′-(trifluoromethyl)biphenyl-4-yl]pyrazin-2-amine] | 
30.3 | 603 | Nc1cnc(-c2ccc(-c3cccnc3-c3ccccc3)cc2F)cn1 [Example 893, 5-[2-Fluoro-4-(2-phenylpyridin-3-yl)phenyl]pyrazin-2-amine] | 
7 | 90.3 | Nc1cnc(-c2ccc(-c3cccnc3S(=O)(=O)c3ccccc3)cc2F)cn1 [Example 897, 5-{2-Fluoro-4-[2-(phenylsulfonyl)pyridin-3-yl]phenyl}pyrazin-2-amine] | 
77 | 87.3 | Nc1cnc(-c2ccc(-c3cccnc3S(=O)(=O)c3cccnc3)cc2F)cn1 [Example 899, 5-{2-Fluoro-4-[2-(pyridin-3-ylsulfonyl)pyridin-3-yl]phenyl}pyrazin-2-amine] | 
35.1 | 40.8 | CN1CCC(S(=O)(=O)c2ncccc2-c2ccc(-c3cnc(N)cn3)c(F)c2)C1 (centres unmarked) [Example 900, 5-(2-Fluoro-4-{2-[(1-methylpyrrolidin-3-yl)sulfonyl]pyridin-3-yl}phenyl)pyrazin-2-amine] | 
1.8 | 1.6 | CC(C)S(=O)(=O)c1nc(C(F)(F)F)ccc1-c1ccc(-c2cnc(N)cn2)c(F)c1 [Example 901, 5-(2-Fluoro-4-{2-[(1-methylethyl)sulfonyl]-6-(trifluoromethyl)pyridin-3-yl}phenyl)pyrazin-2-amine] | 
18.4 | 88.6 | CC(C)S(=O)(=O)c1nc(C(F)(F)F)ccc1-c1ccc(-c2cnc(N)nc2)c(F)c1 [Example 902, 5-(2-Fluoro-4-{2-[(1-methylethyl)sulfonyl]-6-(trifluoromethyl)pyridin-3-yl}phenyl)pyrimidin-2-amine] | 
38.7 | 63.4 | CC(=O)N1CCCC(S(=O)(=O)c2ncccc2-c2ccc(-c3cnc(N)cn3)c(F)c2)C1 (centres unmarked) [Example 903, 5-(4-{2-[(1-Acetylpiperidin-3-yl)sulfonyl]pyridin-3-yl}-2-fluorphenyl)pyrazin-2-amine] | 
255 | 105 | Nc1cnc(-c2ccc(-c3cccnc3S(=O)(=O)C3CCN(CCO)CC3)cc2F)cn1 [Example 904, 2-[4-({3-[4-(5-Aminopyrazin-2-yl)-3-fluorophenyl]pyridin-2-yl}sulfonyl)pipendin-1-yl]ethanol] | 
0.3 | 2 | Nc1cnc(-c2ccc(-c3ccc(C(F)(F)F)nc3S(=O)(=O)C3CCOCC3)cc2F)cn1 [Example 906, 5-{2-Fluoro-4-[2-(tetrahydro-2H-pyran-4-ylsulfonyl)-6-(trifluoromethyl)pyridin-3-yl]phenyl}pyrazin-2-amine] | 
26.6 | 43.7 | CS(=O)(=O)N1CCC(S(=O)(=O)c2ncccc2-c2ccc(-c3cnc(N)cn3)c(F)c2)CC1 [Example 908, 5-[2-Fluoro-4-(2-{[1-(methylsulfonyl)piperidin-4-yl]sulfonyl}pyridin-3-yl)phenyl]pyrazin-2-amine] | 
166 | 28.7 | CC(=O)N1CCC(S(=O)(=O)c2nc(C(F)(F)F)ccc2-c2ccc(-c3cnc(N)nc3)c(F)c2)CC1 [Example 911, 5-(4-{2-[(1-Acetylpiperidin-4-yl)sulfonyl]-6-(trifluoromethyl)pyridin-3-yl}-2-fluorophenyl)pyrimidin-2-amine] | 
0.5 | 8.8 | Nc1cnc(-c2ccc(-c3ccc(C(F)(F)F)nc3S(=O)(=O)C3CCS(=O)(=O)CC3)cc2F)cn1 [Example 912, 5-(4-{2-[(1,1-Dioxidotetrahydro-2H-thiopyran-4-yl)sulfonyl]-6-(trifluoromethyl)pyridin-3-yl}-2-fluorophenyl)pyrazin-2-amine] | 
6.3 | 11.9 | Nc1ncc(-c2ccc(-c3ccc(C(F)(F)F)nc3S(=O)(=O)C3CCS(=O)(=O)CC3)cc2F)cn1 [Example 913, 5-(4-{2-[(1,1-Dioxidotetrahydro-2H-thiopyran-4-yl)sulfonyl]-6-(trifluoromethyl)pyridin-3-yl}-2-fluorophenyl)pyrimidin-2-amine] | 
